Experimental data reported in paper PMC5570892, “Indole-based perenosins as highly potent HCl transporters and potential anti-cancer agents” (Scientific Reports, 2017).

Columns and labels:
[1] = pKa by UV spectrophotometric titration in aqueous solution; type: physicochemical; conditions: for pK a (aq): apparent pKa, hexafluorophosphate buffered DMSO:water 50:50, 25 °C; for solubility in the pKa titration solvent system: hexafluorophosphate buffered DMSO:water 50:50
Source text: (§1) The pK a at which protonation of the imine (N2, see Fig. 3) occurs gives an indication of the optimum pH for the binding of chloride anions. This is an important consideration in anti-cancer drug development as the external pH environment of cancer cells is mildly acidic (pH 6.7)[53] compared to that of healthy cells (pH 7.2–7.5)[54]. This can be exploited to selectively target cancer cells and potentially reduce the cytotoxic effects of perenosins when used as therapeutics for anti-cancer treatment. The apparent pK a values, shown in Table 1, for compounds 1d and 2–8 were determined both in aqueous solution (pK a (aq)) and in the presence of a 1-palmitoyl-2-oleoyl-sn-glycero-3-phosphocholine (POPC) lipid bilayer membrane (pK a (mem)). UV spectrophotometric titrations were conducted by varying the pH condition from neutral to acidic with the titration of either HPF6 or HCl.
The apparent pK a values were derived from nonlinear curve fitting of the absorbance plotted against the pH; global fitting of both wavelengths corresponding to the neutral and protonated species were performed whenever feasible, see Supplementary Information for details.
S6.1 pKa Studies in Aqueous Solution pKa values for compounds 1d, 2, 4, 5, 7 and 8 were determined experimentally in aqueous solution […]
in absorbance bet ween the UV-Vis spectra of the protonated and the neutral species. The titration solution was made up with a hexafluorophosphate buffered (100 mM) DMSO:water 50:50 solution (4990 μL) and a transporter solution (10 μL, 25 mM), and the pH of this was recorded. The UV-Vis spectra were recorded on an Agilent Cary 100 UV-Vis spectrophotometer at 25 °C with baseline correction, using standard 10 mm quartz glass cells. A baseline absorbance was measured on a hexafluorophosphate buffered (100 mM) DMSO:water 50:50 solution, and then the absorbance of the titration solution was measured. The pH of the solution was decreased stepwise by adding small aliquots of hexafluorophosphoric acid ([…]). After each pH decrease an absorbance measurement was taken. The absorbance at a certain wavelength (noted for each compound below) was plotted against the pH and then fitted using a dose response curve in OriginPro 9.1, where the point of inflection corresponds to the apparent pKa in aqueous solution.
Figure S38. Absorbance spectra taken over the course of a pH-spectrophotometric titration of 1d (25 mM) in a hexafluorophosphate buffered (100 mM) DMSO:water 50:50 mixture. Inset: Abs vs. pH with dose response curve fit and the point of inflection corresponding to the pKa value.
(§2) (1 picture or pasted object on this page, not shown here)

[2] = pKa by UV spectrophotometric titration in POPC vesicles; type: physicochemical; conditions: apparent pKa in presence of POPC lipid bilayer, NaCl 500 mM, phosphate 5 mM
Source text: as §1
The apparent pK a values were derived from nonlinear curve fitting of the absorbance plotted against the pH; global fitting of both wavelengths corresponding to the neutral and protonated species were performed whenever feasible, see Supplementary Information for details. […]
All spectra obtained have the increasing and decreasing peaks marked with an arrow.
Isosbestic points were not observed in the titrations due to break down of the imine in acidic conditions. The breakdown product is shown, for all compounds, as the increasing absorbance peak […]
S6.2 pKa Studies in Vesicles pKa values for compounds 1d, 2, 4, 5, 7 and 8 were determined experimentally in vesicles through a […]
absorbance between the UV -Vis spectra of the protonated and the neutral species. Unilamellar vesicles were prepared using previously reported literature procedures 7-9. A lipid film of POPC (1 - palmitoyl-2-oleoyl-sn-glycero-3-phosphocholine) was prepared from a chloroform solution under reduced pressure and then dried under vacuum for 4 or more hours. The lipid film was rehydrated by vortexing with a solution of phosphate buffered (5 mM) sodium chloride (500 mM). The lipid suspension was then subjected to 9 freeze-thaw cycles and left to rest at room temperature for 30 minutes. After this, the suspension was extruded 25 times through a 400 nm polycarbonate membrane resulting in unilamellar vesicles of a mean diameter of 400 nm. The titration solution was made up to a standard volume (2500 μL, 1 mM) with the lipid (615 μL), phosphate buffered (5 mM) sodium chloride (500 mM) solution ([…]) and a transporter solution (10 μL, 25 mM), and the pH of this was noted . The UV-Vis spectra were recorded on an Agilent Cary 100 UV-Vis spectrophotometer at 25 °C with baseline correction, using standard 10 mm quartz glass cells. A baseline absorbance was measured using a solution of lipid, phosphate buffered (5 mM) sodium chloride (500 mM) and DMSO, and then the absorbance of the titration solution was measured. The pH of the solution was decreased stepwise by adding small aliquots of hydrochloric acid (0.1 mM).
as §2
After each pH decrease an absorbance measurement was taken. The absorbance at a certain wavelength (shown for each compound below) was plotted against the pH and then fitted using a dose response curve in OriginPro 9.1, where the point of inflection corresponds to the apparent pKa […]
Figure S44. Absorbance spectra taken over the course of a pH-spectrophotometric titration of 1d (25 mM) in a sodium chloride (500 mM) phosphate buffered (5 mM) lipid solution (1 mM). Inset: Abs vs. pH with dose response curve fit and the point of inflection corresponding to the p Ka value.
Figure S45. Absorbance spectra taken over the course of a pH -spectrophotometric titration of 2 (25 […]
pH with dose response curve fit with the point o f inflection corresponding to the p Ka value. […]

Compound	pK a (aq) [1]	pK a (mem) [2]	solubility in the pKa titration solvent system [1]
CCCCCc1cc(/N=C/c2[nH]c(C)cc2C)c2[nH]ccc2c1 [Perenosin 1d]	6.35	5.42	
CCCCCc1cc2cc(C)cc(/N=C/c3[nH]c(C)cc3C)c2[nH]1 [Perenosin 2]	6.08	5.85	
CCCCCc1cc2cc(C(F)(F)F)cc(/N=C/c3[nH]c(C)cc3C)c2[nH]1 [Perenosin 3]			precipitation was observed
CCCc1cc2cc(C)cc(/N=C/c3[nH]c(C)cc3C)c2[nH]1 [Perenosin 4]	6.78	6.12	
CCCCCc1c(C)[nH]c(/C=N/c2cc(C)cc3cc[nH]c23)c1C [Perenosin 5]	6.44	5.81	
CCCCCc1cc2cc(C)cc(/N=C/c3[nH]c(C)c(CCCCC)c3C)c2[nH]1 [Perenosin 6]			precipitation was observed
CCCCCc1cc(/N=C/c2[nH]c3ccccc3c2C)c2[nH]ccc2c1 [Perenosin 7]	5.51	5.07	
CCCCCc1cc2cc(C)cc(/N=C/c3[nH]c4ccccc4c3C)c2[nH]1 [Perenosin 8]	6.28	5.62	
